Experimental data as given in paper PMC9143880, “Improving Antimicrobial Activity and Physico-Chemical Properties by Isosteric Replacement of 2-Aminothiazole with 2-Aminooxazole” (Pharmaceuticals, 2022).
≈ marks a conversion by molar mass, not a printed value. Where two headings read alike, the source gives them in different places.

What was measured:
[1] = tested on: Mycobacterium tuberculosis H37Ra ITM-M006710 (ATCC 9431); assay: Antimycobacterial MIC, microdilution broth / Alamar Blue (resazurin); type: cell-based; details: Mycobacterium tuberculosis, 120 h, Middlebrook 7H9, resazurin after 120 h; read-out: Mtb H37Ra MIC
[2] = tested on: Escherichia coli CCM 3954 (ATCC 25922); assay: Antibacterial microdilution broth (EUCAST); type: cell-based; details: Escherichia coli; 24h incubation; read-out: MIC EC
[3] = tested on: Candida tropicalis CCM 8264 (ATCC 750); assay: Antifungal microdilution broth (EUCAST); details: Candida tropicalis; for MIC: 24 h
[4] = RP-UHPLC lipophilicity parameter log k’w; type: physicochemical; details: for log k’w: RP-UHPLC, acetonitrile/water, log k extrapolated to 0% acetonitrile; for logkw: experimental lipophilicity parameter
Excerpt: Lipophilicity and water solubility of the drug candidates are important parameters as they are often directly related to their ADME properties in the organism. Lipophilicity is usually expressed as the logarithm of the partition coefficient in n-octanol/water (log P). Due to its laborious determination, especially in the HTS screening, other experimental methods such as RP-HPLC log k’w or purely computational approaches such as Clog P were proposed and have been established as reasonable estimators of true lipophilicity. To investigate the changes in lipophilicity upon introduction of oxazole in the title compounds, we determined the log k’w of all derivatives and compared respective values among the pairs.
The log k of the synthesized compounds was measured using the same instrument (single measurement per concentration), software, and column as was used in the purity evaluation. Working solutions were diluted as described above for purity determination. The log k parameter was calculated after the UHPLC measurements using isocratic mode with mobile phase acetonitrile (B)/water (A) in a set of concentrations of 40, 45, 50% and 20, 30, 40% B for subtype I and subtype II, respectively.

[5] = tested on: Aspergillus fumigatus ATCC 204305; assay: Antifungal microdilution broth (EUCAST); details: Aspergillus fumigatus
[6] = tested on: Enterococcus faecalis CCM 4224 (ATCC 29212); assay: Antibacterial microdilution broth (EUCAST); type: cell-based; details: Enterococcus faecalis; 24h incubation; read-out: MIC EF
[7] = tested on: M. smegmatis DSM 43465 (ATCC 607); assay: Antimycobacterial MIC, microdilution broth / resazurin; type: cell-based; details: Mycolicibacterium smegmatis; resazurin after 48 h; read-out: MIC M. smegmatis
[8] = tested on: Pseudomonas aeruginosa CCM 3955 (ATCC 27853); assay: Antibacterial microdilution broth (EUCAST); type: cell-based; details: Pseudomonas aeruginosa; 72h incubation; read-out: MIC PA
[9] = tested on: Candida krusei CCM 8271 (ATCC 6258); assay: Antifungal microdilution broth (EUCAST); details: Pichia kudriavzevii; for MIC: 24 h
[10] = tested on: Staphylococcus aureus subsp. aureus (MRSA) CCM 4750 (ATCC 43300); assay: Antibacterial microdilution broth (EUCAST); type: cell-based; details: Staphylococcus aureus; 24h incubation; read-out: MIC MRSA
[11] = tested on: Acinetobacter baumannii DSM 30007 (ATCC 19606); assay: Antibacterial microdilution broth (EUCAST); type: cell-based; details: Acinetobacter baumannii; 24h incubation; read-out: MIC AB
[12] = tested on: M. aurum DSM 43999 (ATCC 23366); assay: Antimycobacterial MIC, microdilution broth / resazurin; type: cell-based; details: Mycolicibacterium aurum, read-out: MIC M. aurum
[13] = tested on: Candida albicans CCM 8320 (ATCC 24433); assay: Antifungal microdilution broth (EUCAST); details: Candida albicans; for MIC: 24 h
[14] = tested on: Staphylococcus epidermidis CCM 4418 (ATCC 12228); assay: Antibacterial microdilution broth (EUCAST); type: cell-based; details: Staphylococcus epidermidis; 24h incubation; read-out: MIC SE
[15] = tested on: Lichtheimia corymbifera CCM 8077; assay: Antifungal microdilution broth (EUCAST); details: Lichtheimia corymbifera
[16] = tested on: Staphylococcus aureus subsp. aureus CCM 4223 (ATCC 29213); assay: Antibacterial microdilution broth (EUCAST); type: cell-based; details: Staphylococcus aureus; 24h incubation; read-out: MIC SA
[17] = tested on: Candida parapsilosis CCM 8260 (ATCC 22019); assay: Antifungal microdilution broth (EUCAST); details: Lodderomyces parapsilosis
[18] = tested on: Trichophyton interdigitale CCM 8377 (ATCC 9533); assay: Antifungal microdilution broth (EUCAST); details: Trichophyton interdigitale
HepG2 cells = assay: HepG2 cytotoxicity screening (CellTiter 96); type: cell-based, human; details: Homo sapiens, HepG2, 24 h, 24 h incubation, CellTiter 96; * above highest tested concentration; ** limited by insolubility in medium
[19] = tested on: Aspergillus flavus CCM 8363; assay: Antifungal microdilution broth (EUCAST); details: Aspergillus flavus
[20] = tested on: M. avium DSM 44156 (ATCC 25291); assay: Antimycobacterial MIC, microdilution broth / resazurin; type: cell-based, Mycobacterium avium; details: Mycobacterium avium; resazurin after 96 h; read-out: MIC M. avium
[21] = tested on: M. kansasii DSM 44162 (ATCC 12478); assay: as above; type: cell-based; details: Mycobacterium kansasii; resazurin after 96 h; read-out: MIC M. kansasii
[22] = ATCC204305, 24 h, read-out: MIC AF
[23] = CCM8077, 24 h, read-out: MIC LC
[24] = CCM8363, 24 h, read-out: MIC AFla
[25] = read-out: MIC (visual detection)
[26] = ATCC204305, 48 h, read-out: MIC (visual detection)
[27] = CCM8077, 48 h, read-out: MIC (visual detection)
[28] = ATCC22019|CCM8260, 24 h, read-out: MIC (visual detection)
[29] = ATCC9533|CCM8377, 48 h, read-out: MIC (visual detection)
[30] = CCM8363, 48 h, read-out: MIC (visual detection)

Structure (SMILES)	MIC [1] [µg/mL]	MIC [2] [µM]	MIC ([3]; read-out: MIC CT) [µM]	log k’w [4]	logkw [4]	MIC [5, 22] [µM]	MIC [6] [µM]	MIC [7] [µg/mL]	MIC [8] [µM]	MIC ([9]; read-out: MIC CK) [µM]	MIC [10] [µM]	MIC [11] [µM]	MIC ([13]; read-out: MIC CA) [µM]	MIC [14] [µM]	MIC [15, 23] [µM]	MIC [16] [µM]	MIC ([17]; 24 h, read-out: MIC CP) [µM]	MIC ([18]; 72 h, read-out: MIC TI) [µM]	melting point [°C]	MIC [19, 24] [µM]	further results
O=C(Nc1ncco1)c1ccccn1 [Compound 1b]	62.5 (≈ 330 µM)	> 500	> 500	0.854	0.8542	> 500	> 500	125 (≈ 661 µM)	> 500	> 500	250 (≈ 47.3 µg/mL)	> 500	> 500	125 (≈ 23.6 µg/mL)	> 500	125 (≈ 23.6 µg/mL)	> 500	> 500	129 to 131	> 500	MIC ([12]; resazurin after 72 h): 31.2 µg/mL (≈ 165 µM); IC50 (HepG2 cells): > 1000 µM
O=C(Nc1ncco1)c1ccncc1 [Compound 3b]	15.6 (≈ 82.6 µM)	> 500	> 500	0.396	0.3955	> 500	> 500	62.5 (≈ 330 µM)	> 500	500	500 (≈ 94.6 µg/mL)	> 500	500	500 (≈ 94.6 µg/mL)	500	250 (≈ 47.3 µg/mL)	> 500	500	175 to 177	> 500	MIC ([12]; 72 h): 15.6 µg/mL (≈ 82.6 µM); IC50 (HepG2 cells): > 1000 µM
O=C(Nc1nccs1)c1cnccn1 [Compound 8a]	62.5 (≈ 303 µM)	> 500	> 500	1.222	1.222	> 500	> 500	≥ 500	> 500	> 500	> 500	> 500	> 500	500 (≈ 103 µg/mL)	> 500	> 500	> 500	> 500	–	> 500	MIC [20]: 250 µg/mL (≈ 1210 µM); MIC [21]: 31.2 µg/mL (≈ 152 µM); MIC ([12]; resazurin after 72 h): 125 µg/mL (≈ 606 µM)
O=C(Nc1ncco1)c1cnccn1 [Compound 8b]	31.2 (≈ 164 µM)	> 500	> 500	0.154	0.154	> 500	> 500	≥ 500	> 500	> 500	> 500	> 500	> 500	> 500	500	> 500	> 500	500	160 to 164	> 500	MIC [20]: 62.5 µg/mL (≈ 329 µM); MIC [21]: 15.6 µg/mL (≈ 82.2 µM); MIC ([12]; 72 h): 31.2 µg/mL (≈ 164 µM)
O=C(Nc1ncco1)c1cnc2ccccc2n1 [Compound 10b]	15.6 (≈ 65 µM)	> 500	500	1.493	1.493	500	> 500	62.5 (≈ 260 µM)	> 500	250	> 500	> 500	500	500 (≈ 120 µg/mL)	500	500 (≈ 120 µg/mL)	500	250	163 to 165	> 500	MIC ([12]; 72 h): 15.6 µg/mL (≈ 65 µM); IC50 (HepG2 cells): > 1000 µM
O=C(Nc1nc(-c2ccccc2)co1)c1ccncc1 [Compound 13b]	31.2 (≈ 118 µM)	> 500	> 500	1.163	1.163	> 500	> 500	125 (≈ 471 µM)	> 500	> 500	> 500	> 500	> 500	125 (≈ 33.2 µg/mL)	> 500	500 (≈ 133 µg/mL)	> 500	500	168 to 171	> 500	MIC ([12]; 72 h): 31.2 µg/mL (≈ 118 µM); IC50 (HepG2 cells): 879 µM
C[C@@H]1[C@H](O)[C@@H](C)/C=C/C=C/C=C/C=C/C=C/C=C/C=C/[C@H](O[C@@H]2O[C@H](C)[C@@H](O)[C@H](N)[C@@H]2O)C[C@@H]2O[C@](O)(C[C@@H](O)C[C@@H](O)[C@H](O)CC[C@@H](O)C[C@@H](O)CC(=O)O[C@H]1C)C[C@H](O)[C@H]2C(=O)O [amphotericin B, reference compound]	–	–	–	–	–	–	–	–	–	–	–	–	–	–	–	–	–	–	–	–	MIC [3, 25]: 1 µg/mL; IC90 ([3]; ATCC750|CCM8264, 24 h, read-out: IC90 (spectrophotometric detection)): 1 µg/mL (≈ 1.08 µM); IC90 ([5]; ATCC204305, 48 h, read-out: IC90 (spectrophotometric detection)): 4 µg/mL (≈ 4.33 µM); MIC [5, 26]: 4 µg/mL; MIC [9, 25]: 1 µg/mL; IC90 ([9]; ATCC6258|CCM8271, 24 h, read-out: IC90 (spectrophotometric detection)): 1 µg/mL (≈ 1.08 µM); MIC [13, 25]: 1 µg/mL; IC90 ([13]; ATCC24433|CCM8320, 24 h, read-out: IC90 (spectrophotometric detection)): 1 µg/mL (≈ 1.08 µM); IC90 ([15]; CCM8077, 48 h, read-out: IC90 (spectrophotometric detection)): 1 µg/mL (≈ 1.08 µM); MIC [15, 27]: 1 µg/mL; IC90 ([17]; ATCC22019|CCM8260, 24 h, read-out: IC90 (spectrophotometric detection)): 0.5 µg/mL (≈ 0.541 µM); MIC [17, 28]: 0.5 µg/mL; IC90 ([18]; ATCC9533|CCM8377, 48 h, read-out: IC90 (spectrophotometric detection)): 1 µg/mL (≈ 1.08 µM); MIC [18, 29]: 1 µg/mL; IC90 ([19]; CCM8363, 48 h, read-out: IC90 (spectrophotometric detection)): 4 µg/mL (≈ 4.33 µM); MIC [19, 30]: 4 µg/mL
C[C@@H](c1ncncc1F)[C@](O)(Cn1cncn1)c1ccc(F)cc1F [voriconazole, reference compound]	–	–	–	–	–	–	–	–	–	–	–	–	–	–	–	–	–	–	–	–	MIC [3, 25]: > 16 µg/mL; IC50 ([5]; ATCC204305, 48 h, read-out: IC50 (spectrophotometric detection)): 0.25 µg/mL (≈ 0.716 µM); MIC [5, 26]: 1 µg/mL; MIC [9, 25]: > 16 µg/mL; MIC [13, 25]: > 16 µg/mL; IC50 ([13]; ATCC24433|CCM8320, 24 h, read-out: IC50 (spectrophotometric detection)): 0.03 µg/mL (≈ 0.0859 µM); IC50 ([15]; CCM8077, 48 h, read-out: IC50 (spectrophotometric detection)): 8 µg/mL (≈ 22.9 µM); MIC [15, 27]: > 16 µg/mL; IC50 ([17]; ATCC22019|CCM8260, 24 h, read-out: IC50 (spectrophotometric detection)): 0.03 µg/mL (≈ 0.0859 µM); MIC [17, 28]: > 16 µg/mL; IC50 ([18]; ATCC9533|CCM8377, 48 h, read-out: IC50 (spectrophotometric detection)): 1 µg/mL (≈ 2.86 µM); MIC [18, 29]: > 16 µg/mL; IC50 ([19]; CCM8363, 48 h, read-out: IC50 (spectrophotometric detection)): 1 µg/mL (≈ 2.86 µM); MIC [19, 30]: > 16 µg/mL
